# Results as given in the supplement of paper PMC10307832.
# Columns and labels:
# Test in all cases: relative viability (nuclei count vs DMSO), 5 days (fraction); higher = more cells survive
# NCI-H661 = test system: NCI-H661
# Procedure, shortened: (§1)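 The day after seeding in 1536-well plates, lung cancer cell lines were treated by pin tool with a single drug, or with a fixed anchor-drug dose together with five library-drug doses (not always all listed) in √10 steps. After 5 days, a combined fix-and-stain solution (final 0.05% Triton X-100, 1% formaldehyde, 1 ug/ml Hoechst) was added. Nuclei counted on 4× images gave relative viability as treated counts over vehicle counts, reported as the median of duplicate plates.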
# NCI-H441 = test system: NCI-H441
# Procedure, shortened: as §1
# NCI-H460 = test system: NCI-H460
# Procedure, shortened: as §1
# ABC-1 = test system: ABC-1
# Procedure, shortened: as §1
# NCI-H727 = test system: NCI-H727
# Procedure, shortened: as §1
# HCC-366 = test system: HCC-366
# Procedure, shortened: as §1
# NCI-H1666 = test system: NCI-H1666
# Procedure, shortened: as §1
# NCI-H3122 = test system: NCI-H3122
# Procedure, shortened: as §1
# NCI-H2009 = test system: NCI-H2009
# Procedure, shortened: as §1
# LK-2 = test system: LK-2
# Procedure, shortened: as §1
# BEN = test system: BEN
# Procedure, shortened: as §1
# PC-14 = test system: PC-14
# Procedure, shortened: as §1
# NCI-H1650 = test system: NCI-H1650
# Procedure, shortened: as §1
# COR-L 105 = test system: COR-L 105
# Procedure, shortened: as §1
# SW 900 = test system: SW 900
# Procedure, shortened: as §1
# EKVX = test system: EKVX
# Procedure, shortened: as §1
# CAL-12T = test system: CAL-12T
# Procedure, shortened: as §1
# HARA = test system: HARA
# Procedure, shortened: as §1
# NCI-H1437 = test system: NCI-H1437
# Procedure, shortened: as §1
# NCI-H2170 = test system: NCI-H2170
# Procedure, shortened: as §1
# 201T = test system: 201T
# Procedure, shortened: as §1
# LOU-NH91 = test system: LOU-NH91
# Procedure, shortened: as §1
smiles,measurement,setting,value
CCN(CC)CCCCNc1ncc2cc(-c3cc(OC)cc(OC)c3)c(NC(=O)NC(C)(C)C)nc2n1 + Cc1cc(Nc2cc(N3CCN(C)CC3)nc(Sc3ccc(NC(=O)C4CC4)cc3)n2)n[nH]1 [Tozasertib] (partner 0.1 µM),relative viability,NCI-H661; first compound 0.01 µM,0.38
same,relative viability,NCI-H661; first compound 0.03162 µM,0.327
same,relative viability,NCI-H661; first compound 0.1 µM,0.366
same,relative viability,NCI-H661; first compound 0.3162 µM,0.36
same,relative viability,NCI-H661; first compound 1 µM,0.36
same,relative viability,NCI-H441; first compound 0.01 µM,0.544
same,relative viability,NCI-H441; first compound 0.03162 µM,0.714
same,relative viability,NCI-H441; first compound 0.1 µM,0.821
same,relative viability,NCI-H441; first compound 0.3162 µM,0.616
same,relative viability,NCI-H441; first compound 1 µM,0.597
same,relative viability,NCI-H460; first compound 0.01 µM,0.458
same,relative viability,NCI-H460; first compound 0.03162 µM,0.66
same,relative viability,NCI-H460; first compound 0.1 µM,0.477
same,relative viability,NCI-H460; first compound 0.3162 µM,0.474
same,relative viability,NCI-H460; first compound 1 µM,0.311
same,relative viability,ABC-1; first compound 0.01 µM,0.211
same,relative viability,ABC-1; first compound 0.03162 µM,0.21
same,relative viability,ABC-1; first compound 0.1 µM,0.207
same,relative viability,ABC-1; first compound 0.3162 µM,0.148
same,relative viability,ABC-1; first compound 1 µM,0.187
same,relative viability,NCI-H727; first compound 0.01 µM,0.661
same,relative viability,NCI-H727; first compound 0.03162 µM,0.521
same,relative viability,NCI-H727; first compound 0.1 µM,0.571
same,relative viability,NCI-H727; first compound 0.3162 µM,0.659
same,relative viability,NCI-H727; first compound 1 µM,0.525
same,relative viability,HCC-366; first compound 0.01 µM,0.112
same,relative viability,HCC-366; first compound 0.03162 µM,0.135
same,relative viability,HCC-366; first compound 0.1 µM,0.102
same,relative viability,HCC-366; first compound 0.3162 µM,0.107
same,relative viability,HCC-366; first compound 1 µM,0.0931
same,relative viability,NCI-H1666; first compound 0.01 µM,0.529
same,relative viability,NCI-H1666; first compound 0.03162 µM,0.635
same,relative viability,NCI-H1666; first compound 0.1 µM,0.673
same,relative viability,NCI-H1666; first compound 0.3162 µM,0.672
same,relative viability,NCI-H1666; first compound 1 µM,0.614
same,relative viability,NCI-H3122; first compound 0.01 µM,0.559
same,relative viability,NCI-H3122; first compound 0.03162 µM,0.439
same,relative viability,NCI-H3122; first compound 0.1 µM,0.464
same,relative viability,NCI-H3122; first compound 0.3162 µM,0.326
same,relative viability,NCI-H3122; first compound 1 µM,0.364
same,relative viability,NCI-H2009; first compound 0.01 µM,0.816
same,relative viability,NCI-H2009; first compound 0.03162 µM,0.72
same,relative viability,NCI-H2009; first compound 0.1 µM,0.912
same,relative viability,NCI-H2009; first compound 0.3162 µM,0.821
same,relative viability,NCI-H2009; first compound 1 µM,0.573
same,relative viability,LK-2; first compound 0.01 µM,0.168
same,relative viability,LK-2; first compound 0.03162 µM,0.196
same,relative viability,LK-2; first compound 0.1 µM,0.184
same,relative viability,LK-2; first compound 0.3162 µM,0.213
same,relative viability,LK-2; first compound 1 µM,0.159
same,relative viability,BEN; first compound 0.01 µM,0.371
same,relative viability,BEN; first compound 0.03162 µM,0.508
same,relative viability,BEN; first compound 0.1 µM,0.515
same,relative viability,BEN; first compound 0.3162 µM,0.489
same,relative viability,BEN; first compound 1 µM,0.507
same,relative viability,PC-14; first compound 0.01 µM,0.689
same,relative viability,PC-14; first compound 0.03162 µM,0.578
same,relative viability,PC-14; first compound 0.1 µM,0.62
same,relative viability,PC-14; first compound 0.3162 µM,0.685
same,relative viability,PC-14; first compound 1 µM,0.598
same,relative viability,NCI-H1650; first compound 0.01 µM,0.362
same,relative viability,NCI-H1650; first compound 0.03162 µM,0.305
same,relative viability,NCI-H1650; first compound 0.1 µM,0.392
same,relative viability,NCI-H1650; first compound 0.3162 µM,0.361
same,relative viability,NCI-H1650; first compound 1 µM,0.247
same,relative viability,COR-L 105; first compound 0.01 µM,0.366
same,relative viability,COR-L 105; first compound 0.03162 µM,0.345
same,relative viability,COR-L 105; first compound 0.1 µM,0.374
same,relative viability,COR-L 105; first compound 0.3162 µM,0.354
same,relative viability,COR-L 105; first compound 1 µM,0.354
same,relative viability,SW 900; first compound 0.01 µM,0.662
same,relative viability,SW 900; first compound 0.03162 µM,0.573
same,relative viability,SW 900; first compound 0.3162 µM,0.451
same,relative viability,SW 900; first compound 1 µM,0.382
same,relative viability,EKVX; first compound 0.01 µM,0.475
same,relative viability,EKVX; first compound 0.03162 µM,0.383
same,relative viability,EKVX; first compound 0.1 µM,0.407
same,relative viability,EKVX; first compound 0.3162 µM,0.558
same,relative viability,EKVX; first compound 1 µM,0.366
same,relative viability,CAL-12T; first compound 0.01 µM,0.28
same,relative viability,CAL-12T; first compound 0.03162 µM,0.287
same,relative viability,CAL-12T; first compound 0.1 µM,0.368
same,relative viability,CAL-12T; first compound 0.3162 µM,0.257
same,relative viability,CAL-12T; first compound 1 µM,0.293
same,relative viability,HARA; first compound 0.01 µM,0.104
same,relative viability,HARA; first compound 0.03162 µM,0.122
same,relative viability,HARA; first compound 0.1 µM,0.0948
same,relative viability,HARA; first compound 0.3162 µM,0.0933
same,relative viability,HARA; first compound 1 µM,0.0989
same,relative viability,NCI-H1437; first compound 0.01 µM,0.426
same,relative viability,NCI-H1437; first compound 0.03162 µM,0.403
same,relative viability,NCI-H1437; first compound 0.1 µM,0.374
same,relative viability,NCI-H1437; first compound 0.3162 µM,0.46
same,relative viability,NCI-H1437; first compound 1 µM,0.335
same,relative viability,NCI-H2170; first compound 0.01 µM,0.619
same,relative viability,NCI-H2170; first compound 0.03162 µM,0.77
same,relative viability,NCI-H2170; first compound 0.1 µM,0.747
same,relative viability,NCI-H2170; first compound 0.3162 µM,0.755
same,relative viability,NCI-H2170; first compound 1 µM,0.65
same,relative viability,201T; first compound 0.01 µM,0.995
same,relative viability,201T; first compound 0.03162 µM,0.992
same,relative viability,201T; first compound 0.1 µM,0.979
same,relative viability,201T; first compound 0.3162 µM,1.02
same,relative viability,201T; first compound 1 µM,0.721
same,relative viability,LOU-NH91; first compound 0.01 µM,0.613
same,relative viability,LOU-NH91; first compound 0.03162 µM,0.684
same,relative viability,LOU-NH91; first compound 0.1 µM,0.697
same,relative viability,LOU-NH91; first compound 0.3162 µM,0.677
same,relative viability,LOU-NH91; first compound 1 µM,0.574
